Earlier results on three compounds are cited in US20110223150A1, “Neutraceutical-Based Topical Anxiolytic Agent and Method of Use” (priority 2009, published 2011).

Where two headings read alike, the source gives them in different places. Some results are limits rather than exact numbers.

The test system of series [1] is rats.
In series [2] the test system is mice. The conditions noted are these: i.p. in mice.
Series [3] concerns rats. Conditions: chronic administration of 50 mg/kg.
Series [4] has as its system alpha brain waves.
Series [5] relates to spontaneously hypertensive rats (SHR). Conditions: dose-dependent.

As for `NCC(CC(=O)O)c1ccccc1` (stereo not drawn) [Phenibut, beta-phenyl-gamma-aminobutyric acid], the LD50 was 700 mg/kg in series [1] (i.p. in rats); 1000 mg/kg in series [1] (rats, method of administration not given); 900 mg/kg in series [2]. Moreover, the teratogenic effects entry in series [3] is “did not have teratogenic effects”.

Turning to “gamma-ethylamino-L-glutamic acid [L-theanine]”, the “time until alpha waves were observed (occipital and parietal regions)” value in series [4] (50 or 200 mg of L-theanine) was at most 40 min. Also, the “time to sense of relaxation after ingestion” value in series [4] (after ingestion) was 30 to 40 min. In addition, in series [4] (separate study, dose dependent, 200 mg significant over controls), the “time after which intensity of alpha waves was detectable” value is 30 min. In series [5], the blood pressure effect result was “blood pressure lowering effect”.

Regarding `NC(=O)CC[C@H](N)C(=O)O` [L-glutamine], the blood pressure effect result in series [5] is given as “did not exhibit an anti-hypertensive effect”.

What is called LD50 is the dose at which mortality reaches 50%.
